Test results published in US20140256754A1, “QUINAZOLINES AS B-GLUCURONIDASE NOVEL INHIBITORS” (priority 2013, published 2014).
Like-named read-outs stand apart in the source and are kept apart here.

What was measured:
β-glucuronidase = target: T1, β-glucuronidase (UniProt A3KMY8); experiment: β-Glucuronidase inhibition, spectrophotometric p-nitrophenyl-β-D-glucuronide assay; assay type: biochemical; settings: for % Inhibition: test concentration not given
T1 sequence (A3KMY8 1-652): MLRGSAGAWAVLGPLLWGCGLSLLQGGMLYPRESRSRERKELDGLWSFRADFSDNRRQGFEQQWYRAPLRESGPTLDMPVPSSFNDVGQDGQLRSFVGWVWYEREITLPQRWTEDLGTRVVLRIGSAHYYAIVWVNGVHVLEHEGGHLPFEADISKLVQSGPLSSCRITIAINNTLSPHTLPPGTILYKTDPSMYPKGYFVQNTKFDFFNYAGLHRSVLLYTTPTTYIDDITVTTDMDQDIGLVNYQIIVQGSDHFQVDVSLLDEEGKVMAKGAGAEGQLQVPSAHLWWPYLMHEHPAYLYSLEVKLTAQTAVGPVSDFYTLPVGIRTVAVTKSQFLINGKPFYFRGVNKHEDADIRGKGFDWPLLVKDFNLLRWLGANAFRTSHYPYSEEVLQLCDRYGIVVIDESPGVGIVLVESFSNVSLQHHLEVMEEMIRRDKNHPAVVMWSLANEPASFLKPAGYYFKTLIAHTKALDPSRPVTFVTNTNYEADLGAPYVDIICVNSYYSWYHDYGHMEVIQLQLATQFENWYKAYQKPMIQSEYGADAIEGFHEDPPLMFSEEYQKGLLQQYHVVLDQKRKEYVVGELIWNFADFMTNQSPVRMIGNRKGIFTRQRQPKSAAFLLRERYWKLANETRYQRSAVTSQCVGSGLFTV
Protocol: The total reaction volume was 250 μL. […] The reaction mixture contained 185 μL of 0.1 M acetate buffer, 5 μL of test compound solution, 10 μL of (1U) enzyme solution was incubated at 37° C. for 30 min. […] All assays were run in triplicate. IC50 Values were calculated by using EZ-Fit software (Perrella Scientific Inc., Amherst, Mass., USA). These values are the mean of three independent assays.

PC-3 cells = experiment: MTT cytotoxicity assay against PC-3 cells; settings: read-out: IC50 (μM) ± SEM, 72 h
Protocol: For this purpose, PC-3 cells (Prostrate Cancer)/3T3(Mouse fibroblast) were cultured in Dulbecco's Modified Eagle's Medium, supplemented with 5% of foetal bovine serum (FBS), 100 IU/mL of penicillin and 100 μg/mL of streptomycin in 25 cm^3 flask and kept in 5% CO2 incubator at 37° C. Exponentially growing cells were harvested, counted with haemocytometer and diluted with a particular medium.
Subsequently, 100 μL of DMSO was added to each well. The extent of MTT reduction to formazan within cells was calculated by measuring the absorbance at 570 nm, using a microplate ELISA reader (Spectra Max plus, Molecular Devices, Calif., USA).

[1] = read-out: IC50 (μM) ± SEM, mean of three independent assays

## O=c1[nH]c(-c2ccccc2O)nc2ccccc12 [Compound 2, 2-(2-Hydroxyphenyl)quinazolin-4(3H)-one]
β-glucuronidase; [1]
  IC50: 10 ± 0.54 µM
β-glucuronidase
  % Inhibition: 99.1%
PC-3 cells
  IC50: > 30 µM

## O=c1[nH]c(-c2ccccc2[N+](=O)[O-])nc2ccccc12 [Compound 20, 2-(2-Nitrophenyl)quinazolin-4(3H)-one]
PC-3 cells
  IC50: > 30 µM

## O=c1[nH]c(-c2c(O)cccc2Br)nc2ccccc12 [Compound 25, 2-(2-Bromo-6-hydroxyphenyl)quinazolin-4(3H)-one]
PC-3 cells
  IC50: > 30 µM

## COc1ccc(-c2nc3ccccc3c(=O)[nH]2)cc1OC [Compound 11, 2-[3,4-Bis(methyloxy)phenyl]quinazolin-4(3H)-one]
PC-3 cells
  IC50: > 30 µM

## O=c1[nH]c(-c2cccc([N+](=O)[O-])c2)nc2ccccc12 [Compound 21, 2-(3-Nitrophenyl)quinazolin-4(3H)-one]
β-glucuronidase; [1]
  IC50: 50.4 ± 1.4 µM
β-glucuronidase
  % Inhibition: 95.1%
PC-3 cells
  IC50: > 30 µM

## O=c1[nH]c(-c2c(Cl)cccc2Cl)nc2ccccc12 [Compound 18, 2-(2,6-Dichlorophenyl)quinazolin-4(3H)-one]
PC-3 cells
  IC50: > 30 µM

## O=c1[nH]c(-c2ccc(Cl)cc2Cl)nc2ccccc12 [Compound 17, 2-(2,4-Dichlorophenyl)quinazolin-4(3H)-one]
PC-3 cells
  IC50: > 30 µM

## COc1ccc(-c2nc3ccccc3c(=O)[nH]2)cc1O [Compound 8, 2-[3-Hydroxy-4-(methyloxy)phenyl]quinazolin-4(3H)-one]
β-glucuronidase; [1]
  IC50: 2.8 ± 0.042 µM
β-glucuronidase
  % Inhibition: 84.0%
PC-3 cells
  IC50: > 30 µM

## O=c1[nH]c(-c2ccc([N+](=O)[O-])cc2)nc2ccccc12 [Compound 22, 2-(4-Nitrophenyl)quinazolin-4(3H)-one]
β-glucuronidase; [1]
  IC50: 20.1 ± 0.92 µM
β-glucuronidase
  % Inhibition: 96.4%
PC-3 cells
  IC50: > 30 µM

## O=c1[nH]c(-c2cccc(O)c2)nc2ccccc12 [Compound 4, 2-(3-Hydroxyphenyl)quinazolin-4(3H )-one]
β-glucuronidase
  % Inhibition: 78.5%
PC-3 cells
  IC50: > 30 µM

## Cc1ccc(-c2nc3ccccc3c(=O)[nH]2)cc1 [Compound 24, 2-(4-Methylphenyl)quinazolin-4(3H)-one]
β-glucuronidase
  % Inhibition: 96.3%
PC-3 cells
  IC50: > 30 µM

## O=c1[nH]c(-c2ccccc2Cl)nc2ccccc12 [Compound 16, 2-(2-Chlorophenyl)quinazolin-4(3H)-one]
PC-3 cells
  IC50: > 30 µM

## CCOc1ccccc1-c1nc2ccccc2c(=O)[nH]1 [Compound 14, 2-[2-(Ethyloxy)phenyl]quinazolin-4(3H)-one]
PC-3 cells
  IC50: > 30 µM

## CCOc1ccc(-c2nc3ccccc3c(=O)[nH]2)cc1 [Compound 13, 2-[4-(Ethyloxy)phenyl]quinazolin-4(3H)-one]
PC-3 cells
  IC50: > 30 µM

## O=c1[nH]c(-c2ccc(Cl)cc2)nc2ccccc12 [Compound 19, 2-(4-Chlorophenyl)quinazolin-4(3H)-one]
PC-3 cells
  IC50: > 30 µM

## COc1ccc(O)c(-c2nc3ccccc3c(=O)[nH]2)c1 [Compound 7, 2-[2-Hydroxy-5-(methyloxy)phenyl]quinazolin-4(3H)-one]
PC-3 cells
  IC50: > 30 µM

## COc1ccc(-c2nc3ccccc3c(=O)[nH]2)cc1 [Compound 10, 2-[4-(Methyloxy)phenyl]quinazolin-4(3H)-one]
β-glucuronidase; [1]
  IC50: 1.1 ± 0.05 µM
β-glucuronidase
  % Inhibition: 99.7%
PC-3 cells
  IC50: > 30 µM

## COc1cc(-c2nc3ccccc3c(=O)[nH]2)cc(OC)c1OC [Compound 12, 2-[3,4,5-Tris(methyloxy)phenyl]quinazolin-4(3H)-one]
β-glucuronidase
  % Inhibition: 97.6%
β-glucuronidase; unit inferred
  IC50: 120 ± 2.54 µM
PC-3 cells
  IC50: > 30 µM

## O=c1[nH]c(-c2ccc(O)cc2)nc2ccccc12 [Compound 3, 2-(4-Hydroxyphenyl)quinazolin-4(3H)-one]
β-glucuronidase; [1]
  IC50: 22.2 ± 0.31 µM
β-glucuronidase
  % Inhibition: 99.6%
PC-3 cells
  IC50: > 30 µM

## CCOc1cc(-c2nc3ccccc3c(=O)[nH]2)ccc1O [Compound 15, 2-[3-(Ethyloxy)-4-hydroxyphenyl]quinazolin-4(3H)-one]
PC-3 cells
  IC50: > 30 µM

## O=c1[nH]c(-c2cc(O)ccc2O)nc2ccccc12 [Compound 6, 2-(2,5-Dihydroxyphenyl)quinazolin-4(3H)-one]
PC-3 cells
  IC50: > 30 µM

## CN(C)c1ccc(-c2nc3ccccc3c(=O)[nH]2)cc1 [Compound 23, 2-[4-(Dimethylamino)phenyl]quinazolin-4(3H)-one]
β-glucuronidase; [1]
  IC50: 5.5 ± 0.1 µM
β-glucuronidase
  % Inhibition: 99.6%
PC-3 cells
  IC50: > 30 µM

## O=c1[nH]c(-c2ccc(O)c(O)c2)nc2ccccc12 [Compound 5, 2-(3,4-Dihydroxyphenyl)quinazolin-4(3H)-one]
PC-3 cells
  IC50: > 30 µM
